In the supplement of paper PMC4862054:

Experiments:
Settings in all cases: incubation time: 72 h
CAL-51 [1] = test: normalised viability (% of control), CellTiter-Blue; higher = more viable cells (about 100 = DMSO control)
Description: (§1)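 DSRT, CellTiter-Blue viability, 72 h incubation. Signal is normalised to DMSO and benzethonium chloride controls. Value is the normalised response at dose 6.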

HDQ-P1 [2] = test: as above
Description: as §1

MDA-MB-453 [3] = test: as above
Description: as §1

CAL-148 [4] = test: as above
Description: as §1

CAL-85-1 [5] = test: as above
Description: as §1

DU-4475 [6] = test: as above
Description: as §1

CAL-120 [7] = test: normalised response (% of control), CellTiter-Glo; higher = more viable cells (100 = DMSO, 0 = benzethonium chloride kill control)
Description: (§2)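 DSRT, 72 h incubation, CellTox Green / CellTiter-Glo readout. Signal is normalised to DMSO and benzethonium chloride controls. Value is the normalised response at the highest dose.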

HCC1143 [8] = test: as above
Description: as §2

CAL-51 [9] = test: as above
Description: as §2

HDQ-P1 [10] = test: as above
Description: as §2

HCC1937 [11] = test: as above
Description: as §2

MDA-MB-453 [12] = test: as above
Description: as §2

MDA-MB-231 [13] = test: as above
Description: as §2

MDA-MB-436 [14] = test: as above
Description: as §2

MCF-10A [15] = test: as above
Description: as §2

SK-BR-3 = test: as above
Description: as §2

BT-549 [16] = test: as above
Description: as §2

CAL-148 [17] = test: as above
Description: as §2

CAL-85-1 [18] = test: as above
Description: as §2

DU-4475 [19] = test: as above
Description: as §2

MDA-MB-468 [20] = test: as above
Description: as §2

BT-474 [21] = test: as above
Description: as §2

HCC1599 [22] = test: as above
Description: as §2

MFM-223 [23] = test: as above
Description: as §2

Hs578T [24] = test: as above
Description: as §2

CAL-120 [25] = test: normalised response (% of control), CellTox Green; higher = less cell death (100 = DMSO, 0 = benzethonium chloride kill control)
Summary of the method: (§3)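 Breast cancer cell lines were exposed for 72 h in 384-well plates to compound at 5 concentrations, 10-fold apart, covering a 10,000-fold range fixed for each compound. Plates were read for CellTox Green fluorescence and CellTiter-Glo luminescence and normalised to 0.1 % DMSO (100) and a positive kill control (0). Each value is the normalised signal at one concentration of the series.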

HCC1143 [26] = test: as above
Summary of the method: as §3

CAL-51 [27] = test: as above
Summary of the method: as §3

HDQ-P1 [28] = test: as above
Summary of the method: as §3

HCC1937 [29] = test: as above
Summary of the method: as §3

MDA-MB-453 [30] = test: as above
Summary of the method: as §3

MDA-MB-231 [31] = test: as above
Summary of the method: as §3

MDA-MB-436 [32] = test: as above
Summary of the method: as §3

MCF-10A [33] = test: as above
Summary of the method: as §3

BT-549 [34] = test: as above
Summary of the method: as §3

CAL-148 [35] = test: as above
Summary of the method: as §3

CAL-85-1 [36] = test: as above
Summary of the method: as §3

DU-4475 [37] = test: as above
Summary of the method: as §3

MDA-MB-468 [38] = test: as above
Summary of the method: as §3

BT-474 [39] = test: as above
Summary of the method: as §3

HCC1599 [40] = test: as above
Summary of the method: as §3

MFM-223 [41] = test: as above
Summary of the method: as §3

Hs578T [42] = test: as above
Summary of the method: as §3

`Cc1ccc(-n2nc(C(C)(C)C)cc2NC(=O)Nc2ccc(OCCN3CCOCC3)c3ccccc23)cc1` [Doramapimod] (300 nM) gave a normalised viability (CAL-51 [1]) of 107%, a normalised viability (HDQ-P1 [2]) of 38% and a normalised viability (MDA-MB-453 [3]) of 105%. For the same molecule, the normalised viability (CAL-148 [4]) was 91.3%, the normalised viability (CAL-85-1 [5]) was 81.1% and the normalised viability (DU-4475 [6]) was 96.3%.

Molecule `C#Cc1cccc(Nc2ncnc3cc(OCCOC)c(OCCOC)cc23)c1` [Erlotinib] (300 nM) has a normalised viability (CAL-51 [1]) of 96.4%, a normalised viability (HDQ-P1 [2]) of 63.8% and a normalised viability (MDA-MB-453 [3]) of 86.1%. It also gave a normalised viability (CAL-148 [4]) of 86.1%, a normalised viability (CAL-85-1 [5]) of 73.3% and a normalised viability (DU-4475 [6]) of 114%.

Work on `COc1cc([C@@H]2c3cc4c(cc3[C@@H](O[C@@H]3O[C@@H]5CO[C@@H](C)O[C@H]5[C@H](O)[C@H]3O)[C@H]3COC(=O)[C@H]23)OCO4)cc(OC)c1O` [Etoposide] (300 nM) yielded a normalised viability (CAL-51 [1]) of 59%, a normalised viability (HDQ-P1 [2]) of 77.3% and a normalised viability (MDA-MB-453 [3]) of 104%. For the same molecule, the normalised viability (CAL-148 [4]) was 59.4%, the normalised viability (CAL-85-1 [5]) was 98.9% and the normalised viability (DU-4475 [6]) was 45.6%.

`C[C@]12CC[C@@H]3c4ccc(O)cc4C[C@@H](CCCCCCCCC[S+]([O-])CCCC(F)(F)C(F)(F)F)[C@H]3[C@@H]1CC[C@@H]2O` (some centres undefined) [Fulvestrant] (300 nM) gave a normalised viability (CAL-51 [1]) of 111%, a normalised viability (HDQ-P1 [2]) of 74.7% and a normalised viability (MDA-MB-453 [3]) of 98.8%. The normalised viability (CAL-148 [4]) was 102%, the normalised viability (CAL-85-1 [5]) was 87.8% and the normalised viability (DU-4475 [6]) was 92.7%.

Molecule `O=P1(NCCCl)OCCCN1CCCl` (centres undefined) [Ifosfamide] (300 nM) has a normalised viability (CAL-51 [1]) of 108%, a normalised viability (HDQ-P1 [2]) of 85.1% and a normalised viability (MDA-MB-453 [3]) of 110%. The normalised viability (CAL-148 [4]) was 109%, the normalised viability (CAL-85-1 [5]) was 97.1% and the normalised viability (DU-4475 [6]) was 78.1%.

`CC(C)Cn1cnc2c(N)nc3ccccc3c21` [Imiquimod] (300 nM) showed a normalised viability (CAL-51 [1]) of 97.5%, a normalised viability (HDQ-P1 [2]) of 75.3% and a normalised viability (MDA-MB-453 [3]) of 103%. It also gave a normalised viability (CAL-148 [4]) of 96.5%, a normalised viability (CAL-85-1 [5]) of 102% and a normalised viability (DU-4475 [6]) of 80.5%.

With `CC1(C)NC(=O)N(c2ccc([N+](=O)[O-])c(C(F)(F)F)c2)C1=O` [Nilutamide] (300 nM) the normalised viability (CAL-51 [1]) was 102%, the normalised viability (HDQ-P1 [2]) was 125% and the normalised viability (MDA-MB-453 [3]) was 113%. It also gave a normalised viability (CAL-148 [4]) of 98%, a normalised viability (CAL-85-1 [5]) of 104% and a normalised viability (DU-4475 [6]) of 106%.

`O=C(CCCCCCC(=O)Nc1ccc([C@H]2O[C@@H](CSc3nc(-c4ccccc4)c(-c4ccccc4)o3)C[C@@H](c3ccc(CO)cc3)O2)cc1)NO` [Tubacin] (10000 nM) was tested, and the normalised response (CAL-120 [7]) was 51.8%, the normalised response (HCC1143 [8]) was 37.1% and the normalised response (CAL-51 [9]) was 35.4%. It also gave a normalised response (HDQ-P1 [10]) of 68.6%, a normalised response (HCC1937 [11]) of 32.3% and a normalised response (MDA-MB-453 [12]) of 6.07%. It also gave a normalised response (MDA-MB-231 [13]) of 8.62%, a normalised response (MDA-MB-436 [14]) of 57.5% and a normalised response (MCF-10A [15]) of 52.4%. The normalised response (SK-BR-3) was 45.4%, the normalised response (BT-549 [16]) was 42% and the normalised response (CAL-148 [17]) was 73.5%. For the same molecule, the normalised response (CAL-85-1 [18]) was 18.4%, the normalised response (DU-4475 [19]) was 70.7% and the normalised response (MDA-MB-468 [20]) was 17.2%. It also gave a normalised response (BT-474 [21]) of 13.9%, a normalised response (HCC1599 [22]) of 13.7% and a normalised response (MFM-223 [23]) of 38.2%. The normalised response (Hs578T [24]) was 51.4%, the normalised response (CAL-120 [25]) was 75.1% and the normalised response (HCC1143 [26]) was 27.7%. For the same molecule, the normalised response (CAL-51 [27]) was 53.8%, the normalised response (HDQ-P1 [28]) was 102% and the normalised response (HCC1937 [29]) was 54.5%. For the same molecule, the normalised response (MDA-MB-453 [30]) was 39%, the normalised response (MDA-MB-231 [31]) was -21.5% and the normalised response (MDA-MB-436 [32]) was 89.9%. It also gave a normalised response (MCF-10A [33]) of 110%, a normalised response (BT-549 [34]) of 71.7% and a normalised response (CAL-148 [35]) of 81.1%. The normalised response (CAL-85-1 [36]) was -3.19%, the normalised response (DU-4475 [37]) was 92.1% and the normalised response (MDA-MB-468 [38]) was 98.2%. For the same molecule, the normalised response (BT-474 [39]) was 73.7%, the normalised response (HCC1599 [40]) was 95.2% and the normalised response (MFM-223 [41]) was 81.7%. The normalised response (Hs578T [42]) was 85.2%.
